From patent publication US9157104B2, “Method to improve phosphate solubilization in plants” (Consiglio Nazionale delle Ricerche, priority 2009, dated 2015)

How the values were obtained:
[1] = system: pho operon genes in S. meliloti cells; assay: Quantitative RT-PCR analysis of pho operon genes; assay type: cell-based; details: P-sufficient (13 mM K-phosphate); vs untreated 1021 cells; compounds 0.5 mM, 3 hours
Experimental: FIG. S1. Quantitative RT-PCR analysis of pho operon genes in S. meliloti cells under P-sufficient conditions (13 mM K-phosphate). The relative expression level was >1 for genes more highly expressed in RD64 and in 1021 cells treated for 3 hours with 0.5 mM IAA, Ind, Trp, ICA and 2,4-D. The relative expression level was <1 for genes more highly expressed in 1021 cells (control). Error bars represent the standard deviation from three independent biological experiments.
FIG. 1. Quantitative RT-PCR analysis of pho operon genes expression in S. meliloti cells under P-starving conditions. The relative expression level was >1 for genes more highly expressed in RD64 and in 1021 cells treated for 3 hours with 0.5 mM IAA, Ind, Trp, ICA and 2,4-D. The relative expression level was <1 for genes more highly expressed in 1021 cells (control). Error bars represent the standard deviation from five independent biological experiments (p<0.05).
Total RNA from P-sufficient and P-starved cells was isolated as previously described (5). cDNA were synthesized with the StrataScript™ reverse transcription reagents (Stratagene) and random hexamers as primers. Quantitative PCR was performed with the Power SYBR PCR Master Mix (Applied Biosystems). Reactions were run on the iCycler iQ (Bio-Rad). The thermo cycling condition were: 15 min at 95° C., 40 cycles of denaturation at 95° C. for 20 s, annealing (20 s) and extension (35 s) at 72° C. Specific primer pairs, designed using the Primer3 software, are shown.
smc02641 and smc00128 were used as housekeeping genes for data normalization in the comparative Ct method as previously described (8). Phosphatase Activity

S. meliloti 1021 = assay: Microarray gene expression of 1021 cells treated with 0.5 mM compound; details: P-sufficient (13 mM); for pho genes among those significantly affected (microarray): 1021 + 0.5 mM compound vs untreated 1021;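 for all read-outs here: cells were harvested 3 h after the start of each treatment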
Experimental: For P starvation experiments, cells of 1021 wild-type and RD64 strains were grown at 30° C. to mid exponential phase (OD600=0.6) in RMM broth containing 1% (w/v) mannitol as carbon source and 13 mM P, washed with RMM containing 0 P, resuspended in the same medium and then divided into three cultures. No P (−P), 1.0 mM P (P-starved cells) or 13 mM P (+P cells also named P-sufficient cells) was added into the three cultures, respectively. The P-starved and P-sufficient 1021 wild type cells were treated for 3.0 hours with 0.5 mM IAA. […] To rule out that this bacteria could be partially starved for Trp, RD64 cells were also treated with 0.5 mM Trp and used for microarrays and RT-PCR analyses. […] After 3 hours of each treatment, cell batches were collected, freezed and stored at −80° C. for use in experiments.

[2] = Soluble phosphate release into bacterial free medium containing 5% PR; details: sterilized medium, level comparable to that released during Mt-RD64 plant growth (115.2 mg/l)
Text: FIG. 4. Changes in soluble phosphate release into the bacterial free medium containing 5% phosphate rock (PR) as P source (P-limiting conditions for bacteria growing in a minimal media with PR). […] The amounts of each added organic acids derived from the data obtained in HPLC analysis and were reported in the Material and Methods section. Data are the mean±SD of five independent biological experiments (p<0.006). The concentration of soluble phosphate was estimated using a modification of Fiske and Subarrow method as described by […] et al. (37). […] Bacterial free medium was also treated with 0.5 mM IAA solution. A media that simulates growth is a media without bacteria or their supernatant. The media comprises only RP and the organic acids used as purified powder commercially available (SIGMA), the organic acids concentration used are that produced by the bacteria when grown in a defined media (with IAA, or without, or from RFD64).

[3] = 1021 + 0.5 mM ICA vs untreated 1021

SMILES: O=C(O)COc1ccc(Cl)cc1Cl [2,4-D, 2,4-dichlorophenoxyacetic acid]
- phoB regulatory gene expression (qRT-PCR) [1]: unaffected
- pho genes among those significantly affected (microarray) (S. meliloti 1021): did not find any pho genes
- M (log2 ratio of intensities) SMa1077 nex18 (S. meliloti 1021; 1021 + 2,4-D vs untreated 1021): 2.581
- M (log2 ratio of intensities) SMa1128 degP4 (S. meliloti 1021; 1021 + 2,4-D vs untreated 1021): 1.552
- M (log2 ratio of intensities) SMb21221 smb21221 (S. meliloti 1021; 1021 + 2,4-D vs untreated 1021): 1.027
- M (log2 ratio of intensities) SMc00151 gph1 (S. meliloti 1021; 1021 + 2,4-D vs untreated 1021): −0.8713
- M (log2 ratio of intensities) SMc00335 rpsA (S. meliloti 1021; 1021 + 2,4-D vs untreated 1021): −0.7145
- M (log2 ratio of intensities) SMc00363 rpm1 (S. meliloti 1021; 1021 + 2,4-D vs untreated 1021): −0.8021
- M (log2 ratio of intensities) SMc00591 smc00591 (S. meliloti 1021; 1021 + 2,4-D vs untreated 1021): 0.8629
- M (log2 ratio of intensities) SMc00869 atpF2 (S. meliloti 1021; 1021 + 2,4-D vs untreated 1021): −1.318
- M (log2 ratio of intensities) SMc00912 groES1 (S. meliloti 1021; 1021 + 2,4-D vs untreated 1021): −1.272
- M (log2 ratio of intensities) SMc01214 smc01214 (S. meliloti 1021; 1021 + 2,4-D vs untreated 1021): −1.039
- M (log2 ratio of intensities) SMc01291 rpmD (S. meliloti 1021; 1021 + 2,4-D vs untreated 1021): −0.9964
- M (log2 ratio of intensities) SMc01298 rplX (S. meliloti 1021; 1021 + 2,4-D vs untreated 1021): −1.26
- M (log2 ratio of intensities) SMc01299 rplN (S. meliloti 1021; 1021 + 2,4-D vs untreated 1021): −1.587
- M (log2 ratio of intensities) SMc01300 rpsQ (S. meliloti 1021; 1021 + 2,4-D vs untreated 1021): −0.9524
- M (log2 ratio of intensities) SMc01301 rpmC (S. meliloti 1021; 1021 + 2,4-D vs untreated 1021): −2.007
- M (log2 ratio of intensities) SMc01319 rplJ (S. meliloti 1021; 1021 + 2,4-D vs untreated 1021): −1.788
- M (log2 ratio of intensities) SMc01326 tufB (S. meliloti 1021; 1021 + 2,4-D vs untreated 1021): −1.664
- M (log2 ratio of intensities) SMc01858 smc01858 (S. meliloti 1021; 1021 + 2,4-D vs untreated 1021): −1.083
- M (log2 ratio of intensities) SMc01883 smc01883 (S. meliloti 1021; 1021 + 2,4-D vs untreated 1021): −0.8788
- M (log2 ratio of intensities) SMc02340 smc02340 (S. meliloti 1021; 1021 + 2,4-D vs untreated 1021): −1.408
- M (log2 ratio of intensities) SMc02498 atpH (S. meliloti 1021; 1021 + 2,4-D vs untreated 1021): −1.251
- M (log2 ratio of intensities) SMc02692 rplY (S. meliloti 1021; 1021 + 2,4-D vs untreated 1021): −0.8486
- M (log2 ratio of intensities) SMc02717 leuA1 (S. meliloti 1021; 1021 + 2,4-D vs untreated 1021): −0.8087
- M (log2 ratio of intensities) SMc02905 dnaX (S. meliloti 1021; 1021 + 2,4-D vs untreated 1021): −0.7264
- M (log2 ratio of intensities) SMc03805 tesB (S. meliloti 1021; 1021 + 2,4-D vs untreated 1021): 0.9991
- M (log2 ratio of intensities) SMc03859 rpsP (S. meliloti 1021; 1021 + 2,4-D vs untreated 1021): −0.7104
- M (log2 ratio of intensities) SMc03979 gap (S. meliloti 1021; 1021 + 2,4-D vs untreated 1021): −1.065
- M (log2 ratio of intensities) SMc04003 rpmJ (S. meliloti 1021; 1021 + 2,4-D vs untreated 1021): −1.331

SMILES: O=C(O)c1c[nH]c2ccccc12 [ICA, indole-3-carboxylic acid]
- phoB regulatory gene expression (qRT-PCR) [1]: unaffected
- M (log2 ratio of intensities) SMa1077 nex18 (S. meliloti 1021; [3]): 0.9938
- M (log2 ratio of intensities) SMa1118 hspC2 (S. meliloti 1021; [3]): 1.111
- M (log2 ratio of intensities) SMa1128 degP4 (S. meliloti 1021; [3]): 1.148
- M (log2 ratio of intensities) SMa1306 virB9 (S. meliloti 1021; [3]): 0.9404
- M (log2 ratio of intensities) SMb21183 htpG (S. meliloti 1021; [3]): 0.7619
- M (log2 ratio of intensities) SMc00323 rpsO (S. meliloti 1021; [3]): −0.722
- M (log2 ratio of intensities) SMc00335 rpsA (S. meliloti 1021; [3]): −0.7763
- M (log2 ratio of intensities) SMc00514 smc00514 (S. meliloti 1021; [3]): 0.8721
- M (log2 ratio of intensities) SMc00537 smc00537 (S. meliloti 1021; [3]): 0.9583
- M (log2 ratio of intensities) SMc00868 atpF (S. meliloti 1021; [3]): −0.8306
- M (log2 ratio of intensities) SMc00912 groES1 (S. meliloti 1021; [3]): −1.491
- M (log2 ratio of intensities) SMc00913 groEL1 (S. meliloti 1021; [3]): −0.8349
- M (log2 ratio of intensities) SMc01169 ald (S. meliloti 1021; [3]): 1.71
- M (log2 ratio of intensities) SMc01309 rplC (S. meliloti 1021; [3]): −0.7558
- M (log2 ratio of intensities) SMc01326 tufB (S. meliloti 1021; [3]): −0.8768
- M (log2 ratio of intensities) SMc01534 smc01534 (S. meliloti 1021; [3]): 0.9277
- M (log2 ratio of intensities) SMc01793 smc01793 (S. meliloti 1021; [3]): −0.7625
- M (log2 ratio of intensities) SMc02498 atpH (S. meliloti 1021; [3]): −0.7281
- M (log2 ratio of intensities) SMc02603 smc02603 (S. meliloti 1021; [3]): 1.484
- M (log2 ratio of intensities) SMc03030 flgG (S. meliloti 1021; [3]): −0.7501
- M (log2 ratio of intensities) SMc03037 flaA (S. meliloti 1021; [3]): −0.7114
- M (log2 ratio of intensities) SMc03168 smc03168 (S. meliloti 1021; [3]): 1.005
- M (log2 ratio of intensities) SMc03253 smc03253 (S. meliloti 1021; [3]): 1.14
- M (log2 ratio of intensities) SMc03829 smc03829 (S. meliloti 1021; [3]): 0.9065
- M (log2 ratio of intensities) SMc04040 ibpA (S. meliloti 1021; [3]): 1.474
- M (log2 ratio of intensities) SMc04114 pilA1 (S. meliloti 1021; [3]): −0.7274
- M (log2 ratio of intensities) SMc04140 smc04140 (S. meliloti 1021; [3]): 1.126
- M (log2 ratio of intensities) SMc04307 cyaD2 (S. meliloti 1021; [3]): 1.012
- pho genes among those significantly affected (microarray) (S. meliloti 1021): did not find any pho genes

SMILES: O=C(O)CCC(O)C(=O)O (stereo not shown) [2-hydroxyglutaric acid]
- P solubilization upon exogenous addition of 2-hydroxyglutaric acid [2]: highest
